Reference: patent US11312713B2, “Imidazo[4,5-C]quinoline derivatives as LRRK2 inhibitors” (Pfizer Inc., priority 2017, dated 2022)

Target: LRRK2, WT (GST-tagged truncated LRRK2) (Homo sapiens, UniProt Q5S007)
Test: LRRK2 kinase assay (LanthaScreen), wild type
Type: biochemical
Details: LanthaScreen, LRRKtide substrate, 1 mM ATP
Method: LRRK2 kinase activity was measured using Lantha Screen technology from Invitrogen. GST-tagged truncated LRRK2 from Invitrogen (Cat #PV4874) was incubated with a fluorescein-labeled peptide substrate based upon ezrin/radixin/moesin (ERM), also known as LRRKtide (Invitrogen cat #PR8976A), in the presence of a dose response of compound. Upon completion, the assay was stopped and detected with a terbium labeled anti-phospho-ERM antibody (Invitrogen, cat #PR8975A). […] Using Echo acoustic dispensing, 60 nL of compound was transferred to a low volume Corning 384-well assay plate. 3 μL of a working solution of substrate (200 nM LRRKtide, 2 mM ATP) prepared in assay buffer (50 mM HEPES, pH 7.5, 3 mM MgCl2, with 2 mM DTT and 0.01% Brij35 added fresh) was added to the 60 nL compound assay plate. The kinase reaction was started with 3 μL of a working solution of LRRK2 enzyme at a concentration of 4 μg/m L. The final reaction concentrations were 100 nM LRRKtide, 1 mM ATP, 2 μg/mL LRRK2 enzyme and a compound dose response with a top dose of 3 μM. The reaction was allowed to progress at room temperature for 30 minutes and then stopped with the addition of 6 μL of detection buffer (20 mM Tris pH 7.6, 0.01% NP-40, 6 mM EDTA with 2 nM terbium labeled antiphospho-ERM). […] All final concentrations of substrate ATP and enzyme were the same.

Row | Compound | IC50 [nM]
1 | CN1CC(n2c(Cn3cnnn3)nc3cnc4ccc(Cl)cc4c32)C(F)(F)C1 (stereo not drawn) [enantiomer of Example 86, 8-chloro-1-(4,4-difluoro-1-methylpyrrolidin-3-yl)-2-(1H-tetrazol-1-ylmethyl)-1H-imidazo[4,5-c]quinoline] | 271
2 | Cc1nc(Cc2nc3cnc4ccc(C#N)cc4c3n2C2CN(C)CC2(F)F)no1 (stereo not drawn) [enantiomer of Example 32, 1-(4,4-difluoro-1-methylpyrrolidin-3-yl)-2-[(5-methyl-1,2,4-oxadiazol-3-yl)methyl]-1H-imidazo[4,5-c]quinoline-8-carbonitrile] | 473
3 | Cc1cn(Cc2nc3cnc4ccc(Cl)cc4c3n2C2CN(C)CC2(F)F)nn1 (stereo not drawn) [enantiomer of Example 48, 8-chloro-1-(4,4-difluoro-1-methylpyrrolidin-3-yl)-2-[(4-methyl-1H-1,2,3-triazol-1-yl)methyl]-1H-imidazo[4,5-c]quinoline] | 145
4 | Cc1nc2cnc3ccc(Cl)cc3c2n1[C@H]1CCO[C@@H](CC#N)C1 (relative stereo) [enantiomer of Example 31, [cis-4-(8-chloro-2-methyl-1H-imidazo[4,5-c]quinolin-1-yl)tetrahydro-2H-pyran-2-yl]acetonitrile] | 1660
5 | Cc1cc(Cc2nc3cnc4ccc(Cl)cc4c3n2[C@H]2CCO[C@@H](C(F)F)C2)no1 (relative stereo) [enantiomer of Example 59, 8-chloro-1-[cis-2-(difluoromethyl)tetrahydro-2H-pyran-4-yl]-2-[(5-methyl-1,2-oxazol-3-yl)methyl]-1H-imidazo[4,5-c]quinoline] | 631
6 | Cc1nc(Cc2nc3cnc4ccc(Cl)cc4c3n2C2CN(C)CC2(F)F)no1 (stereo not drawn) [enantiomer of Example 88, 8-chloro-1-(4,4-difluoro-1-methylpyrrolidin-3-yl)-2-[(5-methyl-1,2,4-oxadiazol-3-yl)methyl]-1H-imidazo[4,5-c]quinoline] | 261

Results, then the compound that gave them:

Row | IC50 [nM] | Compound
7 | 229 | COCc1cn(Cc2nc3cnc4ccc(F)cc4c3n2C2CN(C)CC2(F)F)nn1 (stereo not drawn) [enantiomer of Example 53, 1-(4,4-difluoro-1-methylpyrrolidin-3-yl)-8-fluoro-2-{[4-(methoxymethyl)-1H-1,2,3-triazol-1-yl]methyl}-1H-imidazo[4,5-c]quinoline]
8 | 181 | Cc1cnc(Cc2nc3cnc4ccc(Cl)cc4c3n2C2CN(C)CC2(F)F)cn1 (stereo not drawn) [enantiomer of Example 50, 8-chloro-1-(4,4-difluoro-1-methylpyrrolidin-3-yl)-2-[(5-methylpyrazin-2-yl)methyl]-1H-imidazo[4,5-c]quinoline]
9 | 97.3 | CN1CC(n2c(Cn3cc(C4CC4)nn3)nc3cnc4ccc(Cl)cc4c32)C(F)(F)C1 (stereo not drawn) [enantiomer of Example 47, 8-chloro-2-[(4-cyclopropyl-1H-1,2,3-triazol-1-yl)methyl]-1-(4,4-difluoro-1-methylpyrrolidin-3-yl)-1H-imidazo[4,5-c]quinoline]
10 | 55.9 | Cc1nn2cc(Cc3nc4cnc5ccc(F)cc5c4n3C3CN(C)CC3(F)F)nc2s1 (stereo not drawn) [enantiomer of Example 85, 1-(4,4-difluoro-1-methylpyrrolidin-3-yl)-8-fluoro-2-[(2-methylimidazo[2,1-b][1,3,4]thiadiazol-6-yl)methyl]-1H-imidazo[4,5-c]quinoline]
11 | 46.2 | Cc1nnn(Cc2nc3cnc4ccc(Cl)cc4c3n2C2CN(C)CC2(F)F)n1 (stereo not drawn) [enantiomer of Example 49, 8-chloro-1-(4,4-difluoro-1-methylpyrrolidin-3-yl)-2-[(5-methyl-2H-tetrazol-2-yl)methyl]-1H-imidazo[4,5-c]quinoline]
12 | 37.8 | Cc1cnn(Cc2nc3cnc4ccc(Cl)cc4c3n2C2CN(C)CC2(F)F)n1 (stereo not drawn) [enantiomer of Example 87, 8-chloro-1-(4,4-difluoro-1-methylpyrrolidin-3-yl)-2-[(4-methyl-2H-1,2,3-triazol-2-yl)methyl]-1H-imidazo[4,5-c]quinoline]
13 | 37.2 | CC(C#N)Cc1nc2cnc3ccc(Cl)cc3c2n1[C@@H]1CCO[C@H](C)C1 (stereo partly drawn) [diastereomer of Example 78, 3-{8-chloro-1-[(2R,4R)-2-methyltetrahydro-2H-pyran-4-yl]-1H-imidazo[4,5-c]quinolin-2-yl}-2-methylpropanenitrile]
14 | 33.7 | Cc1nnc(Cc2nc3cnc4ccc(Cl)cc4c3n2C2CCOCC2(F)F)s1 (stereo not drawn) [enantiomer of Example 92, 8-chloro-1-(3,3-difluorotetrahydro-2H-pyran-4-yl)-2-[(5-methyl-1,3,4-thiadiazol-2-yl)methyl]-1H-imidazo[4,5-c]quinoline]
15 | 15.3 | COCc1cn(Cc2nc3cnc4ccc(Cl)cc4c3n2C2CCOCC2(F)F)nn1 (stereo not drawn) [enantiomer of Example 55, 8-chloro-1-(3,3-difluorotetrahydro-2H-pyran-4-yl)-2-{[4-(methoxymethyl)-1H-1,2,3-triazol-1-yl]methyl}-1H-imidazo[4,5-c]quinoline]
16 | 10.3 | FC1(F)COCCC1n1c(Cn2cncn2)nc2cnc3ccc(Cl)cc3c21 (centres unmarked) [Example 54, 8-chloro-1-(3,3-difluorotetrahydro-2H-pyran-4-yl)-2-(1H-1,2,4-triazol-1-ylmethyl)-1H-imidazo[4,5-c]quinoline]
17 | 9.35 | FC1(F)COCCC1n1c(Cn2cc(C3CC3)nn2)nc2cnc3ccc(Cl)cc3c21 (stereo not drawn) [enantiomer of Example 94, 8-chloro-2-[(4-cyclopropyl-1H-1,2,3-triazol-1-yl)methyl]-1-(3,3-difluorotetrahydro-2H-pyran-4-yl)-1H-imidazo[4,5-c]quinoline]
18 | 7.54 | Fc1ccc2ncc3nc(Cc4csnn4)n([C@H]4CC[C@@H](F)C4)c3c2c1 (relative stereo) [enantiomer of Example 79, 8-fluoro-1-[cis-3-fluorocyclopentyl]-2-(1,2,3-thiadiazol-4-ylmethyl)-1H-imidazo[4,5-c]quinoline]

Same assay, conditions: wild type LRRK2; LanthaScreen, LRRKtide substrate

Row | IC50 [nM] | Compound
19 | 10.3 | FC1(F)COCCC1n1c(Cn2cncn2)nc2cnc3ccc(Cl)cc3c21 (centres unmarked) [Example 54, 8-chloro-1-(3,3-difluorotetrahydro-2H-pyran-4-yl)-2-(1H-1,2,4-triazol-1-ylmethyl)-1H-imidazo[4,5-c]quinoline]
20 | 2.62 | Cc1nn2cc(Cc3nc4cnc5ccc(F)cc5c4n3C3CN(C)CC3(F)F)nc2s1 (centres unmarked) [Example 85, 1-(4,4-difluoro-1-methylpyrrolidin-3-yl)-8-fluoro-2-[(2-methylimidazo[2,1-b][1,3,4]thiadiazol-6-yl)methyl]-1H-imidazo[4,5-c]quinoline]
21 | 1790 | N#CCC1CC(n2c(C3CCC3)nc3cnc4ccc(Cl)cc4c32)CCO1 (stereo not drawn) [Example 10, [cis-4-(8-Chloro-2-cyclobutyl-1H-imidazo[4,5-c]quinolin-1-yl)tetrahydro-2H-pyran-2-yl]acetonitrile]
22 | 1530 | CCc1nc2cnc3ccc(Cl)cc3c2n1[C@H]1CCO[C@@H](CC#N)C1 [Example 2, [(2R,4S)-4-(8-Chloro-2-ethyl-1H-imidazo[4,5-c]quinolin-1-yl)tetrahydro-2H-pyran-2-yl]acetonitrile]

Row | Compound | IC50 [nM]
23 | Cc1cnn(Cc2nc3cnc4ccc(C#N)cc4c3n2C2CN(C)CC2(F)F)n1 (single isomer, unassigned) [Example 3, 1-(4,4-Difluoro-1-methylpyrrolidin-3-yl)-2-[(4-methyl-2H-1,2,3-triazol-2-yl)methyl]-1H-imidazo[4,5-c]quinoline-8-carbonitrile] | 31.8
